The source of these data is PubChem BioAssay AID2253 (Southern Research Specialized Biocontainment Screening …, 2010).

The experiment has as its system THP-1 viability, CellTiter-Glo luminescence, 72 h. Kind of experiment: THP-1 cell cytotoxicity, dose response, cytotoxicity control for Salmonella PhoP regulon inhibitors, S. typhimurium screen hits (AID 2253).
What is called EC50 is the concentration giving half of the maximal effect. For the compound `O=C1C(Nc2ccccc2)=C/C(=N/S(=O)(=O)c2cccs2)c2ccccc21`, the EC50 is 1.5 µM.

With `CN(C)c1ccc(/C=C/c2ccc3ccccc3[n+]2C)cc1`, the EC50 was 0.3 µM.

Consider `CCN(CC)S(=O)(=O)c1cccc(C(=O)N/N=C/c2ccc(O)c(O)c2O)c1`, for which the EC50 was 6.68 µM.

In the case of `O=[N+]([O-])c1cc(F)c2cccnc2c1O`, the EC50 is 30.5 µM.

Regarding `Cc1cccc(NC(=S)NC(NC(=O)c2ccco2)C(Cl)(Cl)Cl)c1` (configuration not stated), the concentration for a half-maximal effect (EC50) was 21.7 µM.

For the compound `Cc1ccc2[nH]c3c(NCc4ccco4)ncnc3c2c1`, the EC50 is 34.7 µM.

Consider `O=C(NNc1c2ccccc2nc2ccccc12)c1ccccc1O`, for which the half-maximal effective concentration (EC50) was 28.3 µM.

`O=C(Nc1nnc(-c2cccs2)o1)c1cccc(Oc2ccccc2)c1`: the EC50 is 19.6 µM.

Turning to `CC1=C(C(=O)OCC2CCCO2)C(c2cccc(C(F)(F)F)c2)C2=C(CC(c3ccco3)CC2=O)N1` (configuration not stated), the EC50 is 42.7 µM.

In the case of `CC[n+]1c(/C=C/N(C)c2ccccc2)n(-c2ccccc2)c2ccc(-c3nc4ccccc4s3)cc21`, the EC50 is 0.46 µM.

As to `C(=Nc1ccc(Nc2ccccc2)cc1)c1ccc2ccccc2c1`, the EC50 was 25.8 µM.

For `COc1ccc(C(C[N+](=O)[O-])n2nc(C)cc2C)cc1` (configuration not stated), the half-maximal effective concentration (EC50) was 10.1 µM.

On to `O=Cc1ccc(O)c2ncccc12`, for which the EC50 was 3.79 µM.

For the compound `CN(c1cccc(Cl)c1)S(=O)(=O)c1cccc(C(=O)Nc2nc3ccccc3[nH]2)c1`, the EC50 was 13.3 µM.

Take `C[CH2][Hg][S]c1ccccc1C(=O)O`: the EC50 was 0.71 µM.

In the case of `Nc1c(Cl)ncnc1N/N=C/c1ccccn1`, the EC50 was 0.47 µM.

`COc1cc([N+](=O)[O-])cc(/C=N\NC(=O)C2COc3ccccc3O2)c1O` (configuration not stated): the concentration giving a half-maximal response (EC50) was 19.6 µM.

In the case of `Oc1ccc(C=Nc2ccc3ncccc3c2)c(O)c1`, the EC50 is 14.2 µM.

Consider `CCCCOc1ccc(CSC(=N)N)cc1[N+](=O)[O-]`, for which the EC50 is 16.5 µM.

On to `Oc1ccc(Cl)cc1Cc1cc(Cl)ccc1O`, for which the EC50 was 19.6 µM.

As for `CCOc1ccc(-n2c(SCc3nc(-c4ccc(C)cc4)no3)nnc2-c2ccncc2)cc1`, the concentration for a half-maximal effect (EC50) is 28.3 µM.

For `CCn1c2ccccc2c2cc(/C=N/NC(=O)c3ccccc3)ccc21`, the EC50 is 4.12 µM.

As to `O=[N+]([O-])c1cc(CN2CCCC2)c2cccnc2c1O`, the EC50 is 41.2 µM.

Regarding `Cc1cc(C)c2nc(NNC(=O)c3ccc(S(=O)(=O)N4CCCCC4)cc3)sc2c1`, the EC50 was 4.69 µM.

`O=c1[nH]cc(F)c(=O)[nH]1`: the EC50 was 4.25 µM.

In the case of `CC(=O)Oc1cc2cccc(OC(C)=O)c(=O)c2c(OC(C)=O)c1OC(C)=O`, the EC50 was 14.6 µM.

Consider `O=C(N/N=C/c1cc(Cl)ccc1O)c1cccnc1`, for which the EC50 was 2.08 µM.

In the case of `Fc1ccc(Nc2nc(NCc3ccco3)c3ccccc3n2)cc1`, the EC50 is 6.54 µM.

Regarding `CCCCC1(CCCC)C(=O)NC(=Nc2cccc(C)c2)NC1=O`, the EC50 was 39.1 µM.

On to `Cc1ccc(-c2cc(-c3ccc(Cl)cc3)c(C#N)c(N)n2)o1`, for which the EC50 is 26.2 µM.

For `COc1ccccc1-n1c(SCc2cc(=O)oc3cc(O)ccc23)nc2ccccc2c1=O`, the half-maximal effective concentration (EC50) was 21.6 µM.

In the case of `Cc1cccc(Nc2cc(C)c3c(O)cccc3n2)c1C`, the EC50 was 8.98 µM.

`COc1ccc(/C=C2\CN(Cc3ccccc3)C/C(=C\c3ccc(OC)cc3)C2=O)cc1`: the EC50 was 12.7 µM.

For `O=S(=O)(Nc1ccc(N=Nc2ccc(O)c3ccccc23)cc1)c1ccccc1`, the EC50 is 22 µM.

For the compound `Clc1ccc(Cn2ncc3c(NCc4ccco4)ncnc32)c(Cl)c1`, the EC50 was 6.81 µM.

Consider `CCn1c(N)[n+](CC(=O)Nc2ccc(SC(F)F)cc2)c2ccccc21`, for which the EC50 is 13.3 µM.

With `C[C@H]1c2cccc(O)c2C(O)=C2C(=O)[C@]3(O)C(O)=C(C(N)=O)C(=O)[C@@H](N(C)C)[C@@H]3[C@@H](O)[C@@H]21`, the EC50 is 27.5 µM.

For the compound `C/C(CC(=O)Nc1ccc(Cl)c(C(F)(F)F)c1)=N\NC(=O)c1cccc(O)c1`, the EC50 is 24.2 µM.

Turning to `COc1ccc(Nc2cc(C)nc(NCc3ccccc3)n2)cc1`, the EC50 was 10.1 µM.

On to `CCCCCCCCCCOC(=O)Cn1c(COc2ccccc2OC)[n+](C)c2ccccc21`, for which the EC50 was 2.2 µM.

Regarding `CO[C@H]1C=CO[C@@]2(C)Oc3c(C)c(O)c4c(O)c(c(C=NN5CCN(C)CC5)c(O)c4c3C2=O)NC(=O)C(C)=CC=C[C@H](C)[C@H](O)[C@@H](C)[C@@H](O)[C@@H](C)[C@H](OC(C)=O)[C@@H]1C`, the EC50 was 33 µM.

Consider `C[C@H]1O[C@@H](n2cc(F)c(=O)[nH]c2=O)[C@H](O)[C@@H]1O`, for which the EC50 is 43.8 µM.

Take `O=C1C2=C(NC(=S)NC2c2ccc(Cl)cc2)NC(c2ccc(Cl)cc2)N1c1ccc(Cl)cc1` (configuration not stated): the EC50 was 11.3 µM.

Regarding `O=C(NCCCc1ccccc1)Nc1cccc(Cl)c1`, the concentration giving a half-maximal response (EC50) is 37 µM.

For `COc1cccc(/C=N/NC(=O)c2ccc(-c3ccccc3)cc2)c1O`, the EC50 is 1.08 µM.

As to `Cn1c(=N)n(CC(=O)c2ccc(Br)s2)c2ccccc21`, the EC50 is 10.1 µM.

`CCCCn1c(/N=C/c2c[nH]c3ccccc23)nc2ccccc21`: the half-maximal effective concentration (EC50) was 27.2 µM.

In the case of `CN1CCN(CCCN2c3ccccc3Sc3ccc(Cl)cc32)CC1`, the EC50 was 14.1 µM.

As to `CCCCCCCCOC(=O)C1=C(C)Nc2nnnn2C1c1cccs1` (configuration not stated), the EC50 is 21.8 µM.

Regarding `Cc1ccc(Nc2nc(N)c3ccccc3n2)cc1Cl`, the EC50 is 16.3 µM.

Take `Oc1cc(Cl)ccc1Oc1ccc(Cl)cc1Cl`: the EC50 is 33.9 µM.

Consider `OCCNCc1c(OCc2ccc(Cl)cc2)ccc2ccccc12`, for which the half-maximal effective concentration (EC50) was 7.52 µM.

Turning to `Nc1ccc(Nc2ccccc2)cc1`, the EC50 was 11.6 µM.

Take `O=C(c1cccs1)c1no[n+]([O-])c1C(=O)c1cccs1`: the EC50 is 2.61 µM.

As for `O=C(CN1CCCC1)N/N=C/c1c(O)ccc2ccccc12`, the EC50 was 3.43 µM.

Regarding `c1ccc(C2CNCc3c2ccc2ccccc32)cc1` (configuration not stated), the EC50 was 11 µM.

`C(=C\c1ccccc1)/C=N/Nc1nc2ccccc2[nH]1`: the EC50 was 15.5 µM.

With `Cc1cc(C(=O)N/N=C/c2ccc([N+](=O)[O-])s2)n[nH]1`, the EC50 was 12.8 µM.

As to `NC1=NC[C@H](Cc2ccc(O)cc2)N1CCCCC1CCCCC1`, the EC50 was 2.63 µM.

In the case of `N#CC1=C(N)N=C(SCc2cccc3ccccc23)C(C(N)=O)C12CCCCC2` (configuration not stated), the EC50 is 20.9 µM.

As for `Cc1cc(C(=O)NNC(=S)NC(=O)/C=C/c2ccccc2Cl)n[nH]1`, the EC50 is 23.6 µM.

`O=C1C(=O)c2ccccc2-c2ccccc21`: the EC50 is 8.03 µM.

Consider `CN1c2ccccc2C(C)(C)[C@]12C=Cc1cc(O)ccc1O2`, for which the EC50 is 15.4 µM.

As for `CCCC(=O)NC(c1ccccc1)c1ccc2cccnc2c1O` (configuration not stated), the EC50 is 0.59 µM.

Turning to `CCCC(=O)NC(c1cccs1)c1cc([N+](=O)[O-])c2cccnc2c1O` (configuration not stated), the EC50 is 7.09 µM.

As for `CCN1CCN(C(c2ccc(C(F)(F)F)cc2)c2ccc3cccnc3c2O)CC1` (configuration not stated), the EC50 is 1.78 µM.

As to `COc1cnc(-c2ccccn2)[nH]c1=O`, the 50% effective concentration (EC50) is 25.6 µM.

`COc1ccc(Nc2nnc(SCc3cn4c(C)cccc4n3)s2)cc1`: the EC50 was 9.34 µM.

As to `O=CN/N=C/c1c(O)ccc2ccccc12`, the EC50 was 5.18 µM.

On to `COc1cccc(-n2c(SCc3cc(=O)oc4cc(O)c(O)cc34)nc3ccccc3c2=O)c1`, for which the EC50 was 15.1 µM.

`O=C(Nc1ccc(Cl)c(Cl)c1)Nc1ccccc1O`: the EC50 was 21.1 µM.

Regarding `Cc1ccc2c(c1)[nH]c1c(N3CCN(Cc4ccccc4)CC3)ncnc12`, the EC50 was 18.9 µM.
